From ChEMBL document CHEMBL4354832, “Discovery of a Covalent Inhibitor of KRASG12C (AMG 510) for the Treatment of Solid Tumors” (J Med Chem, 2020)
Converted amounts (≈) assume the structure as drawn. “And” between values parts separate entries of the source, which are not always exact repeats. Identical values can stand only once.

Experiments:
[1] = tested on: MIA PaCa-2; experiment: Antiproliferative activity against human MIAPaCa2 cells harboring KRAS G12C point mutant assessed as cell growth inhibition after 72 hrs by Celltiter-Glo luminescent cell viability assay; format: functional, cell-based; conditions: MIA PaCa-2, 72 h
[2] = tested on: A549; experiment: Antiproliferative activity against human A549 cells harboring KRAS G12S point mutant assessed as cell growth inhibition after 72 hrs by Celltiter-Glo luminescent cell viability assay; format: functional, cell-based; conditions: A549, 72 h
[3] = Intrinsic clearance in mouse cryopreserved hepatocytes assessed per 10^6 cells at 0.5 uM measured upto 60 mins by LCMS analysis; format: ADME, cell-based, Hepatocyte; conditions: read-out: CLH
[4] = Intrinsic clearance in human cryopreserved hepatocytes assessed per 10^6 cells at 0.5 uM measured upto 60 mins by LCMS analysis; format: ADME, cell-based, Hepatocyte; conditions: read-out: CLH
[5] = Permeability of compound across apical to basolateral membrane in MDCK2 cells at 10 to 50 uM incubated for 2 hrs under shaking condition by LC-MS/MS analysis; format: ADME, cell-based, Canis lupus familiaris, MDCK-II; conditions: dog, MDCK; read-out: permeability
[6] = Solubility of compound in PBS buffer at pH 7.4 incubated for 48 to 72 hrs under shaking conditions by LCMS analysis; format: physicochemical
[7] = Solubility of compound in FaSSIF incubated for 48 to 72 hrs under shaking conditions by LCMS analysis; format: physicochemical
[8] = Solubility of compound in 0.01N HCl at pH 2 incubated for 48 to 72 hrs under shaking conditions by LCMS analysis; format: physicochemical
[9] = Clearance in BALB/c mouse at 1 mg/kg, iv or 10 mg/kg, po; format: ADME, organism-based; conditions: in vivo
[10] = Volume of distribution at steady state in BALB/c mouse at 1 mg/kg, iv or 10 mg/kg, po; format: ADME, organism-based; conditions: in vivo, read-out: Vdss
[11] = Half life in BALB/c mouse at 1 mg/kg, iv or 10 mg/kg, po; format: ADME, organism-based; conditions: in vivo
[12] = Oral bioavailability in BALB/c mouse at 10 mg/kg; format: ADME, organism-based; conditions: in vivo
[13] = target: GTPase KRas (Homo sapiens, UniProt P01116, C118A/G12C); experiment: Inhibition of GDP bound recombinant human His-tagged KRAS G12C/C118A mutant (1 to 169 residues) assessed as reduction in SOS1-mediated GDP/GTP nucleotide exchange by measuring the disruption between GDP-bound recombinant His-tagged KRAS G12C/C118A (1 to 169 residues) and Ras binding domain of GST-tagged c-RAF (1 to 149 residues) preincubated for 5 mins followed by SOS1 and GTP addition and further incubated for 30 mins by AlphaLISA assay
[14] = target: GTPase KRas (Homo sapiens, UniProt P01116); experiment: Inhibition of KRAS in human MIAPaca2 cells assessed as decrease in EGF-stimulated ERK1/2 phosphorylation preincubated for 2 hrs followed by EGF stimulation; format: cell-based

Row | IC50 [1] [nM] | IC50 [2] [nM] | hepatocyte CLint at 0.5 µM [3] [µL/min/1e6 cells] | hepatocyte CLint at 0.5 µM [4] [µL/min/1e6 cells] | Papp A→B at 2 h, up to 50 µM [5] [×10⁻⁶ cm/s] | solubility thermodynamic [6] [µM] | solubility thermodynamic [7] [µM] | solubility thermodynamic [8] [µM] | clearance [9] [mL/min/kg] | Vd [10] [L/kg] | half-life [11] [min] | bioavailability [12] [%] | SMILES | IC50 [13] [nM] | IC50 [14]
1 | 11 | 11600 | 111 | 37 | 22 | 41 (≈ 22.9 µg/mL) | 164 (≈ 91.8 µg/mL) | 24 (≈ 13.4 µg/mL) | 33.3 | 1.1 | 30 | < 0.5 | C=CC(=O)N1CCN(c2nc(=O)n(-c3c(C)cccc3C(C)C)c3nc(-c4c(O)cccc4F)c(F)cc23)[C@@H](C)C1 |  | 
2 |  |  |  |  |  |  |  |  |  |  |  |  | C=CC(=O)N1CCN(c2nnc(-c3ccccc3C)c3cc(-c4c(O)cccc4F)c(Cl)cc23)CC1 | 5710 | 3330 nM
3 |  |  |  |  |  |  |  |  |  |  |  |  | C=CC(=O)N1CCN(c2nnc(-c3ccccc3C(C)C)c3cc(-c4c(O)cccc4F)c(Cl)cc23)CC1 | 683 | 1800 nM
4 | 1 | 34100 | 75 | 11 | 1 | 46 (≈ 26.5 µg/mL) | 381 (≈ 220 µg/mL) | 500 (≈ 289 µg/mL) | 65 | 0.8 | 24 | < 0.5 | C=CC(=O)N1CCN(c2nc(=O)n(-c3c(C)ccnc3C(C)C)c3nc(-c4c(O)cccc4F)c(Cl)cc23)[C@@H](C)C1 |  | 
5 | 5 | 7900 | 236 | 135 | 20 | 11 (≈ 6.01 µg/mL) | 224 (≈ 122 µg/mL) |  | 60 | 2.3 | 36 | 9 | C=CC(=O)N1CCN(c2nc(=O)n(-c3ccccc3C(C)C)c3nc(-c4ccccc4F)c(Cl)cc23)[C@@H](C)C1 |  | 
6 |  |  |  |  |  |  |  |  |  |  |  |  | C=CC(=O)N1CCN(c2nc(=O)n(-c3ccccc3C(C)(C)C)c3nc(-c4c(O)cccc4F)c(Cl)cc23)[C@@H](C)C1 |  | 51 nM
7 |  |  |  |  |  |  |  |  |  |  |  |  | C=CC(=O)N1CCN(c2ncnc3c(F)c(-c4c(O)cccc4F)c(Cl)cc23)CC1 | 939 | 831 nM
8 |  |  |  |  |  |  |  |  |  |  |  |  | C=CC(=O)N1CCN(c2nnc(-c3ccccc3CC)c3cc(-c4c(O)cccc4F)c(Cl)cc23)CC1 | 903 | 2580 nM
9 |  |  |  |  |  |  |  |  |  |  |  |  | C=CC(=O)N1CCN(c2nnc(-c3ccccc3Cl)c3cc(-c4c(O)cccc4F)c(Cl)cc23)CC1 | 3520 | 3530 nM
10 |  |  |  |  |  |  |  |  |  |  |  |  | C=CC(=O)N1CCN(c2nc(=O)n(-c3ccccc3C3CC3)c3nc(-c4c(O)cccc4F)c(Cl)cc23)[C@@H](C)C1 | 225 | 109 nM
11 | 3 | > 50000 | 139 | 5 | 1 | 499 (≈ 288 µg/mL) | 500 (≈ 289 µg/mL) | 421 (≈ 243 µg/mL) | 58.3 | 0.4 | 18 | < 0.5 | C=CC(=O)N1CCN(c2nc(=O)n(-c3c(C)ncnc3C(C)C)c3nc(-c4c(O)cccc4F)c(Cl)cc23)[C@@H](C)C1 |  | 
12 | 17 | 2700 |  |  |  |  | 71 (≈ 41.1 µg/mL) |  |  |  |  |  | C=CC(=O)N1CCN(c2nc(=O)n(-c3ccccc3C(C)C)c3cc(-c4cc(O)cc5ccccc45)c(Cl)cc23)CC1 |  | 
13 |  |  |  |  |  |  |  |  |  |  |  |  | C=CC(=O)N1CCN(c2nc(=O)n(-c3ccnn3C(C)C)c3nc(-c4c(O)cccc4F)c(Cl)cc23)[C@@H](C)C1 |  | 218 nM
14 |  |  |  |  |  |  |  |  |  |  |  |  | C=CC(=O)N1CCN(c2nnc(-c3ccccc3)c3cc(-c4c(O)cccc4F)c(Cl)cc23)CC1 | 20100 | 58000 nM
15 | 11 | 11500 | 109 | 32 | 6 | 14 (≈ 7.67 µg/mL) | 204 (≈ 112 µg/mL) | 14 (≈ 7.67 µg/mL) | 13.3 | 0.5 | 90 | 1.3 | C=CC(=O)N1CCN(c2nc(=O)n(-c3ccccc3C(C)C)c3nc(-c4c(O)cccc4F)c(Cl)cc23)CC1 |  | 
16 |  |  |  |  |  |  |  |  |  |  |  |  | C=CC(=O)N1CCN(c2nnc(-c3ccccc3OC)c3cc(-c4c(O)cccc4F)c(Cl)cc23)CC1 | 9150 | 8050 nM
17 |  |  |  |  |  |  |  |  |  |  |  |  | C=CC(=O)N1CCN(c2nc(=O)n(-c3c(C)cccc3C)c3nc(-c4c(O)cccc4F)c(Cl)cc23)[C@@H](C)C1 |  | 199 nM
18 | 40 | 7400 | 270 | 148 | 3 |  | 218 (≈ 130 µg/mL) |  |  |  |  |  | C=CC(=O)N1CCN(c2nc(=O)n(-c3ccccc3C(C)C)c3cc(-c4ccccc4C(F)(F)F)c(Cl)cc23)[C@@H](C)C1 |  | 
19 | 13 | 12200 | 288 | 82 | 18 | 88 (≈ 47.9 µg/mL) | 299 (≈ 163 µg/mL) | 57 (≈ 31 µg/mL) | 28.3 | 0.8 | 30 | 10 | C=CC(=O)N1CCN(c2nc(=O)n(-c3ccccc3C(C)C)c3nc(-c4ccccc4O)c(Cl)cc23)[C@@H](C)C1 |  | 
20 | 22 | 6400 | 415 | 197 | 7 |  | 344 (≈ 183 µg/mL) |  |  |  |  |  | C=CC(=O)N1CCN(c2nc(=O)n(-c3ccccc3C(C)C)c3cc(-c4ccccc4F)c(Cl)cc23)CC1 |  | 
21 |  |  |  |  |  |  |  |  |  |  |  |  | C=CC(=O)N1CCN(c2nc(=O)n(-c3ncccc3C(C)C)c3nc(-c4c(O)cccc4F)c(Cl)cc23)[C@@H](C)C1 |  | 53 nM
22 |  |  |  |  |  |  |  |  |  |  |  |  | C=CC(=O)N1CCN(c2nnc(-c3ccccc3C3CC3)c3cc(-c4c(O)cccc4F)c(Cl)cc23)CC1 | 1550 | 7150 nM
23 | 16 | 49100 | 100 | 9 | 1 | 426 (≈ 239 µg/mL) | 477 (≈ 267 µg/mL) | 484 (≈ 271 µg/mL) | 61.7 | 1.1 | 18 | 15 | C=CC(=O)N1CCN(c2nc(=O)n(-c3c(C(C)C)ccnc3C)c3nc(-c4c(O)cccc4F)c(F)cc23)[C@@H](C)C1 |  | 
24 | 3 | 32400 | 96 | 5 | 2 | 335 (≈ 193 µg/mL) | 435 (≈ 251 µg/mL) | 534 (≈ 308 µg/mL) | 23.3 | 1.4 | 24 | < 0.5 | C=CC(=O)N1CCN(c2nc(=O)n(-c3c(C(C)C)ccnc3C)c3nc(-c4c(O)cccc4F)c(Cl)cc23)[C@@H](C)C1 |  | 
25 | 6 | 5800 | 356 | 166 | 10 |  | 260 (≈ 142 µg/mL) |  | 26.7 | 1.4 | 54 | 12 | C=CC(=O)N1CCN(c2nc(=O)n(-c3ccccc3C(C)C)c3cc(-c4ccccc4F)c(Cl)cc23)[C@@H](C)C1 |  | 
26 | 16 | 7100 | 319 | 205 | 12 |  | 175 (≈ 98.4 µg/mL) |  | 90 | 4.8 | 36 | 12 | C=CC(=O)N1CCN(c2nc(=O)n(-c3ccccc3C(C)C)c3nc(-c4ccccc4Cl)c(Cl)cc23)[C@@H](C)C1 |  | 

Row | SMILES | IC50 [1] [nM] | IC50 [2] [nM] | hepatocyte CLint at 0.5 µM [3] [µL/min/1e6 cells] | hepatocyte CLint at 0.5 µM [4] [µL/min/1e6 cells] | Papp A→B at 2 h, up to 50 µM [5] [×10⁻⁶ cm/s] | solubility thermodynamic [6] [µM] | solubility thermodynamic [7] [µM] | solubility thermodynamic [8] [µM] | clearance [9] [mL/min/kg] | Vd [10] [L/kg] | half-life [11] [min] | bioavailability [12] [%] | IC50 [13] [nM] | IC50 [14]
27 | C=CC(=O)N1CCN(c2nc(=O)n(-c3ccccc3C(C)C)c3cc(-c4ccccc4Cl)c(Cl)cc23)[C@@H](C)C1 | 18 | 7400 | 397 | 317 | 6 |  | 255 (≈ 143 µg/mL) |  |  |  |  |  |  | 220 nM
28 | C=CC(=O)N1CCN(c2nc(=O)n(-c3ccccc3C(C)C)c3cc(-c4c(O)cccc4F)c(Cl)cc23)[C@@H](C)C1 | 14 | 15300 | 263 | 113 | 1 |  | 226 (≈ 127 µg/mL) |  |  |  |  |  |  | 28 nM
29 | C=CC(=O)N1CCN(c2nc(=O)n(-c3ccccc3C(C)C)c3cc(-c4c(O)cccc4F)c(Cl)cc23)CC1 | 33 | 10300 | 195 | 56 | 2 |  | 191 (≈ 104 µg/mL) |  | 5 | 0.8 | 204 | < 0.5 | 101 | 335 nM and 130 nM
30 | C=CC(=O)N1CCN(c2nc(=O)n(-c3ccccc3C(C)C)c3cc(-c4c(C)ccc5[nH]ncc45)c(Cl)cc23)CC1 | 4 | 1700 | 180 | 121 | 4 |  | 218 (≈ 124 µg/mL) |  | 70 | 5.3 | 168 | < 0.5 |  | 8 nM
